The source of these data is ChEMBL document CHEMBL1145485, “Immunomodulatory peptide from cystatin, a natural cysteine protease inhibitor, against leishmaniasis as a model macrophage disease” (Antimicrob Agents Chemother, 2007).

Usually IC50 stands for the concentration that gives 50% inhibition.

The source made the active and inactive calls. The rule behind the calls is not given here.

The test system of assay [1] is Macrophage. The experiment in a line: Reversal of increase in NO release in BALB/c mouse peritoneal macrophages upto 1 uM in presence of anti-peptide antibody. In kind it is functional, cell-based.
Assay [2] has as its system Macrophage. The assay is described as follows: Increase in NO release in BALB/c mouse peritoneal macrophages upto 1 uM. In kind it is functional, cell-based.
Assay [3] deals with Leishmania donovani. The assay is described as follows: Antileishmanial activity against Leishmania donovani MHOM/IN/1983 infected BALB/c mouse peritoneal macrophages in presence of IFN-gamma. In kind it is functional, organism-based.
For assay [4], the system named is Leishmania donovani. The experiment in a line: Reversal of antileishmanial activity against Leishmania donovani MHOM/IN/1983 infected BALB/c mouse peritoneal macrophages in presence of 2-amino-5,6-dihydro-6-methyl-4H-1,3-thiazine. It is filed as functional, organism-based.
For assay [5], the system named is Leishmania donovani. The experiment in a line: Reversal of antileishmanial activity against Leishmania donovani MHOM/IN/1983 infected BALB/c mouse peritoneal macrophages in presence of anti-peptide antibody. In kind it is functional, organism-based.
Assay [6] relates to Leishmania donovani. The assay is described as follows: Antileishmanial activity against Leishmania donovani AG83 infected BALB/c mouse assessed as reduction of spleen burden at 0.5 mg/kg/day, iv in presence of IFN-gamma after 45 days. In kind it is functional. On the set-up: scale not given: the % may be the effect or the level left.
Assay [7] deals with Leishmania donovani. The experiment in a line: Antileishmanial activity against Leishmania donovani AG83 infected BALB/c mouse assessed as reduction of liver burden at 0.5 mg/kg/day, iv in presence of IFN-gamma after 45 days. It is filed as functional. More on the design: scale not given: the % may be the effect or the level left.

As to H-PVPVDENDEG-OH, the result in assay [1], in assay [2], in assay [4] and in assay [5] was Active. Also, in assay [3], the IC50 was 0.52 µg/mL. Besides, the Activity was 95% in assay [6] and 93% in assay [7].
